{"source": "paper PMC7468568", "about": "(Nature chemical biology, 2020)", "key": {"[1]": {"experiment": "Microsomal clearance, human", "assay_type": "in vitro ADME", "conditions": "1 μM"}, "[2]": {"molecular_target": "T1, NAPE-PLD (Mus musculus, UniProt Q8BH82)", "T1 sequence (Q8BH82 1-396)": "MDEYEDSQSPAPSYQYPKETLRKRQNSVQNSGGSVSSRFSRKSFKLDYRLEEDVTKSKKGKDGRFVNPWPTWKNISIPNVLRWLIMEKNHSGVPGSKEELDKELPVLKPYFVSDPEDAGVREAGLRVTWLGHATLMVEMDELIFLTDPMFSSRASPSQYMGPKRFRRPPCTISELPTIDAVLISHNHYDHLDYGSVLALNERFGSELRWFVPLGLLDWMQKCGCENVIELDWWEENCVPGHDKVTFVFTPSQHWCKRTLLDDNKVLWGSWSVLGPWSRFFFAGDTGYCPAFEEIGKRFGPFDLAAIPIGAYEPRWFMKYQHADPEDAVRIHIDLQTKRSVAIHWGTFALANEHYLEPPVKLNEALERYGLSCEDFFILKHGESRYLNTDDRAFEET", "experiment": "LC-MS-based endogenous NAPE-PLD activity assay", "assay_type": "biochemical"}, "[3]": {"tested_on": "brain NAE levels", "experiment": "Lipid measurements in mouse brain", "assay_type": "in vivo"}, "[4]": {"experiment": "logD-assay", "assay_type": "physicochemical", "conditions": "octanol/water"}, "[5]": {"tested_on": "DAGLα", "experiment": "Natural substrate-based fluorescence assay DAGLα", "assay_type": "biochemical, human and mouse"}, "[6]": {"tested_on": "DAGLα/β, MAGL and ABHD6", "experiment": "In vitro ABPP of brain of LEI-401-treated mice", "assay_type": "in vivo, mouse", "conditions": "male C57BL/6J mice; 30 mg kg^−1 i.p.; 2 h; ABPP of brain membrane lysate"}, "[7]": {"molecular_target": "T2, ABHD6 (Mus musculus, UniProt Q8R2Y0)", "T2 sequence (Q8R2Y0 1-336)": "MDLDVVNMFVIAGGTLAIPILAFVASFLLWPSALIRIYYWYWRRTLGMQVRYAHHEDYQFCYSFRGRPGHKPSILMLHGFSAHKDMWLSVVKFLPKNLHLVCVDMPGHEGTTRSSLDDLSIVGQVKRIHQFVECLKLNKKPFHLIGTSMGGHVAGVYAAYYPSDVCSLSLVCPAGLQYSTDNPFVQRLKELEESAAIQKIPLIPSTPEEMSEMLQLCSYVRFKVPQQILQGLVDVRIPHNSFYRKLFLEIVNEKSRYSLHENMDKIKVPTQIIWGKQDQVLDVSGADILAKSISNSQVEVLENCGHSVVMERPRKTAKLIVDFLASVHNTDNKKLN", "experiment": "Gel-based ABPP, mouse brain membrane proteome", "assay_type": "biochemical"}, "[8]": {"molecular_target": "cannabinoid CB1 receptor (Homo sapiens, UniProt P21554)", "sequence (P21554 whole entry)": "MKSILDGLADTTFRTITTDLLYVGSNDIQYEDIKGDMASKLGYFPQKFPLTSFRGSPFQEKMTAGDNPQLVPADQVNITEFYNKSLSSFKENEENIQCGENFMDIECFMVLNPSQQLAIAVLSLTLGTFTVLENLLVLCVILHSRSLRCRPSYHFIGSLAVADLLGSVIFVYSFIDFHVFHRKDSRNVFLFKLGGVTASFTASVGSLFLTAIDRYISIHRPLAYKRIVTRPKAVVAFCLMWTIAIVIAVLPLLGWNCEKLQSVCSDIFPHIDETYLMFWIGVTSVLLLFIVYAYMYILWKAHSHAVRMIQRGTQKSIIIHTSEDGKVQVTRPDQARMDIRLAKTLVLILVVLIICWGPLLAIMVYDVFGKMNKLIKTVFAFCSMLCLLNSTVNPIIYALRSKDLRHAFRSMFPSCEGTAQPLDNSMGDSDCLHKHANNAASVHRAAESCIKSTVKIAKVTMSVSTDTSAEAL", "experiment": "[3H]CP55940 radioligand displacement assay CB1", "assay_type": "binding", "conditions": "at 10 μM"}, "[9]": {"experiment": "Hepatocyte clearance, human", "assay_type": "in vitro ADME", "conditions": "1 μM"}, "[10]": {"molecular_target": "T3, FAAH (Mus musculus, UniProt O08914)", "T3 sequence (O08914 1-579)": "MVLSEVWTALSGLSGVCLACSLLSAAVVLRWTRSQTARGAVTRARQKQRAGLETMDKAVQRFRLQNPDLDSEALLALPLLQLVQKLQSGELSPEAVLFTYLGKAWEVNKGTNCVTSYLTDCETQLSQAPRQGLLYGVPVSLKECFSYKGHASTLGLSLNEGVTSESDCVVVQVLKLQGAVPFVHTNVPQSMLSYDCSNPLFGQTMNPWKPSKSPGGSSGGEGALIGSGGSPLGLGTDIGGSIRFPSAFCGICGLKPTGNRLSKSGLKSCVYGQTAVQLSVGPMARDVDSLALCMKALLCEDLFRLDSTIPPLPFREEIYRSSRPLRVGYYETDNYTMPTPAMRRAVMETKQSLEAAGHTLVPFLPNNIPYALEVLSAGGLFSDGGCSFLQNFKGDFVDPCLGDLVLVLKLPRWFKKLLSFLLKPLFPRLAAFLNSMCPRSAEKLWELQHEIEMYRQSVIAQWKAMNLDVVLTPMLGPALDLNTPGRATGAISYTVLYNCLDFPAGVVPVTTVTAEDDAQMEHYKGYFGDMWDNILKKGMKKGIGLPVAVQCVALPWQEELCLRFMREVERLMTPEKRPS", "experiment": "Gel-based ABPP, mouse brain membrane proteome", "assay_type": "biochemical", "conditions": "at 10 μM"}, "[11]": {"experiment": "Kinetic aqueous solubility", "assay_type": "physicochemical", "conditions": "phosphate buffer pH 6.5"}, "[12]": {"tested_on": "Neuro-2a cells", "experiment": "Targeted lipidomics in Neuro-2a cells", "assay_type": "cell-based, mouse", "conditions": "10 μM, 2 h"}, "[13]": {"molecular_target": "mouse PGP-transporter (Mus musculus, UniProt P21447)", "sequence (P21447 whole entry)": "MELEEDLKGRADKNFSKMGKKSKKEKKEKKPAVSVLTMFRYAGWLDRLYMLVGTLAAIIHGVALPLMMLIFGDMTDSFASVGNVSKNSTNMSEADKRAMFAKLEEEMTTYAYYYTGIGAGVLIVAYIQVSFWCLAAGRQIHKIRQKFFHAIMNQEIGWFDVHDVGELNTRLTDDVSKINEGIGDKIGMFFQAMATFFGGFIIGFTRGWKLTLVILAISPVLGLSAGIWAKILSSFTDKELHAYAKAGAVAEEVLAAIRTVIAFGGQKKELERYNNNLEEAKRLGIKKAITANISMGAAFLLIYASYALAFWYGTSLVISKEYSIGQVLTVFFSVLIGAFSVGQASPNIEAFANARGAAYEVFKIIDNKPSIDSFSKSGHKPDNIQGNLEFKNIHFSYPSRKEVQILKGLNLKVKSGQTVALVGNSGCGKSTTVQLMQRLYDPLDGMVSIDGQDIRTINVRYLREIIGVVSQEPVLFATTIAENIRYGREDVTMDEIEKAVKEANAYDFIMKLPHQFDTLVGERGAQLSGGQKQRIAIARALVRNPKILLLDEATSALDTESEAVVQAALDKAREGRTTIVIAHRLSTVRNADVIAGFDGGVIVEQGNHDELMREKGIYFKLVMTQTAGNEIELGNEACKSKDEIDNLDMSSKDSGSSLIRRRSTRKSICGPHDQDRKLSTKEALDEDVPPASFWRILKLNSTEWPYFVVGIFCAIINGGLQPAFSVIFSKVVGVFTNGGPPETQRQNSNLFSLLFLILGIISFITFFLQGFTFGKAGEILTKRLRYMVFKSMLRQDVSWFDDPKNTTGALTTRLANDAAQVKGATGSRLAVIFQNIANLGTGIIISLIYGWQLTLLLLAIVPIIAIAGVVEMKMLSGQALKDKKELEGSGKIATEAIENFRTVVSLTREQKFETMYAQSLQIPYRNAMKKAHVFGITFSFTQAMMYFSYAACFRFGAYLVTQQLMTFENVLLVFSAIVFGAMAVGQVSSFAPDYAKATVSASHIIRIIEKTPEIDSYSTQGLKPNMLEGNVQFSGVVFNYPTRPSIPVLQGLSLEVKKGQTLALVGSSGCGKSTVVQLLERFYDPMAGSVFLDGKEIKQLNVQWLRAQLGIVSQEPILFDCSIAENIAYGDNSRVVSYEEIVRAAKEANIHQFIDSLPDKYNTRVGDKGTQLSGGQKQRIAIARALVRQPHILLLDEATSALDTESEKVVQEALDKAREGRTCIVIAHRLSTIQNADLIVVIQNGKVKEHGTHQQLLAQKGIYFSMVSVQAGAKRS", "experiment": "P-glycoprotein active efflux assay, mouse", "assay_type": "in vitro ADME"}, "[14]": {"conditions": "WT littermates of NAPE-PLD KO animals, mixed 129SvJ-C57BL/6 background"}}}
{"smiles": "O=C(NCC1CC1)c1cc(N2CC[C@H](O)C2)nc(N2CCC[C@@H](c3ccccc3)C2)n1", "note": "[LEI-401]", "values": [{"measurement": "clearance in human microsomes", "setting": "[1]", "result": 10, "unit": "μl min^−1 mg^−1 protein"}, {"measurement": "C17:0-NAE formation from C17:0-NAPE", "setting": "[2]; brain homogenates of NAPE-PLD KO mice", "result": "not from KO mice"}, {"measurement": "C17:0-NAE formation from C17:0-NAPE", "setting": "[2]; brain homogenates of WT mice", "result": "reduced C17:0-NAE formation"}, {"measurement": "brain 2-AG levels", "setting": "[3]; C57BL/6J mice, 30 mg kg^−1 i.p.", "result": "not significantly affected"}, {"measurement": "brain anandamide level, dose response", "setting": "[3]; C57BL/6J mice, 30 mg kg^−1 i.p., 2 h", "result": "significantly reduced anandamide"}, {"measurement": "brain NAE levels in NAPE-PLD KO mice", "setting": "[3]; NAPE-PLD KO mice, mixed 129SvJ-C57BL/6 background", "result": "did not reduce"}, {"measurement": "brain AA levels at high dose", "setting": "[3]; WT and NAPE-PLD KO mice (both genotypes), 60 mg kg^−1", "result": "decreased"}, {"measurement": "brain NAPE and pNAPE species", "setting": "[3]; WT and NAPE-PLD KO mice, compared to vehicle", "result": "No change"}, {"measurement": "brain PEA and OEA levels in WT littermates", "setting": "[3]; [14]", "result": "significantly reduced"}, {"measurement": "brain anandamide levels in WT littermates", "setting": "[3]; [14]", "result": "not decreased"}, {"measurement": "brain anandamide level, time course", "setting": "[3]; male C57BL/6J mice, 30 mg kg^−1 i.p. single dose, 1, 2, 4, 8 h, significant at 2 h, vehicle level by 4 h", "result": "significant and time-dependent reduction"}, {"measurement": "logD", "setting": "[4]", "result": 3.3}, {"measurement": "inhibition of DAGLα", "setting": "[5]", "result": "did not inhibit"}, {"measurement": "activity of DAGLα/β, MAGL and ABHD6 in the brain", "setting": "[6]", "result": "not affected"}, {"measurement": "inhibition of ABHD6", "setting": "[7]", "result": "did not inhibit"}, {"measurement": "inhibitory activity, cannabinoid receptor type 1", "setting": "[8]", "result": "No inhibitory activities"}, {"measurement": "clearance in human hepatocytes", "setting": "[9]", "result": 6.9, "unit": "μl min^−1 per 10^6 cells"}, {"measurement": "inhibitory activity, FAAH", "setting": "[10]", "result": "No inhibitory activities"}, {"measurement": "aqueous solubility", "setting": "[11]", "result": 1.7, "unit": "µg/mL"}, {"measurement": "anandamide level", "setting": "[12]; Neuro-2a NAPE-PLD KO cells", "result": "not in NAPE-PLD KO cells"}, {"measurement": "anandamide level", "setting": "[12]; Neuro-2a WT cells", "result": "twofold reduction"}, {"measurement": "other saturated, mono- and (ω−6)-polyunsaturated NAE levels", "setting": "[12]; Neuro-2a WT cells", "result": "twofold decrease"}, {"measurement": "(ω−3)-polyunsaturated EPEA and DHEA levels", "setting": "[12]; Neuro-2a cells", "result": "did not respond"}, {"measurement": "efflux ratio, mouse PGP-transporter", "setting": "[13]", "result": 1.8}]}
